Data published in patent publication US5095007A, “Alteration of rate and character of hair growth” (priority 1990, dated 1992).

How the values were obtained:
[1] = system: adenosine nucleotide contents of hair follicles; experiment: Adenosine nucleotide contents of flank organ hair follicles after topical treatment; assay type: in vivo, hamster; conditions: 10% in vehicle, three days of daily treatments
Description: The effect of the enzyme inhibition, was further shown by measurements of hair follicle nucleotide levels after topical treatment with L-alanosine. A group of eight hamsters was treated topically with L-alanosine (10% in the vehicle above) on one flank organ while the other organ received an equal amount of just the vehicle. After three days of daily treatments, the hair follicles from the flank organs were removed and the adenosine nucleotide contents were determined.

[2] = system: adenylosuccinate synthetase; experiment: Adenylosuccinate synthetase activity in hamster hair follicles after topical treatment; assay type: in vivo; conditions: 10% solution, twice over a 24 hour period
hamster flank organ = experiment: Reduction of hair growth (hair mass) on hamster flank organ after topical application; assay type: in vivo, Golden Syrian hamster; conditions: for Percent Inhibition of Hair Growth: vs vehicle-treated organ
Excerpt: L-alanosine was mixed with separate portions of the foregoing vehicle to provide specimens containing 0.1, 0.5, 1, 2, and 6% by weight respectively of the inhibitor and the pH was adjusted to pH 7.5 with sodium hydroxide.
Four groups (eight animals in each group) of male intact Golden Syrian hamsters were provided. These animals were considered acceptable models for human beard hair growth in that they display oval shaped flank organs, one on each side, each about 8 mm. in major diameter, which grow thick black and coarse hair similar to human beard hair. These organs produce hair in response to androgens in the hamster. The flank organs of each hamster were depilated by applying a thioglycolat-- based chemical depilatory (Surgex), and to one organ of each animal was applied 10-25 μl. of vehicle alone once a day, while to the other organ of each animal was applied an equal amount of vehicle containing inhibitor. After three weeks of such applications (five days a week), the flank organs were shaved and the amount of recovered hair (hair mass) from each was weighed. The extent of reduction in hair growth by the inhibitor was expressed as the percent decrease in hair mass on the organ treated with inhibitor as compared to the organ treated with vehicle alone. As a control, one group of eight animals had both flank organs of each animal treated with vehicle alone.
A series of compositions was prepared containing various percentages by weight of N-phosphonacetyl-L-aspartic acid (PALA) in the vehicle described in Example 1 above adjusted to pH 4.5, and applied to hamster flank organs under the same conditions as described in Example 1. The reduction in hair growth observed after three weeks was as follows: […]

[3] = system: aspartate transcarbamylase; experiment: Aspartate transcarbamylase activity in hamster hair follicles after topical treatment; assay type: in vivo; conditions: 10% solution, two treatments over a 24 hour period
[4] = system: pyrimidine nucleotide content of hair follicles; experiment: Pyrimidine nucleotide content of hair follicles after topical treatment; assay type: in vivo, hamster; conditions: same treatment protocol as nucleotide content in Example 1 (10%, three days daily)
[5] = L-alanosine 0.5%, 25 μl, pH 7.5, three weeks
[6] = L-alanosine 1.0%, 25 μl, pH 7.5, three weeks
[7] = L-alanosine 2.0%, 25 μl, pH 7.5, three weeks
[8] = L-alanosine 6.0%, 25 μl, pH 7.5, three weeks
[9] = PALA 2%, 10 μl, pH 4.5, three weeks
[10] = PALA 2%, 25 μl, pH 4.5, three weeks
[11] = PALA 4%, 25 μl, pH 4.5, three weeks
[12] = PALA 6%, 10 μl, pH 4.5, three weeks
[13] = PALA 6%, 25 μl, pH 4.5, three weeks

N[C@@H](CN(O)N=O)C(=O)O [L-alanosine, L-2-amino-3-(N-hydroxy, N-nitrosamino) propionic acid]
reduction in ADP levels in hair follicles [1]: 40%
reduction in AMP levels in hair follicles [1]: 50%
reduction in ATP levels in hair follicles [1]: 29%
inhibition of adenylosuccinate synthetase activity [2]: about 49%
Hamster Flank Organ Hair Mass, Treated Mean (hamster flank organ; L-alanosine 0.1%, 25 μl, pH 7.5, once a day, five days a week, three weeks): 0.68 mg
Percent Inhibition of Hair Growth (hamster flank organ; L-alanosine 0.1%, 25 μl, pH 7.5, three weeks): 18%
Hamster Flank Organ Hair Mass, Treated Mean (hamster flank organ; [5]): 0.67 mg
Percent Inhibition of Hair Growth (hamster flank organ; [5]): 32%
Hamster Flank Organ Hair Mass, Treated Mean (hamster flank organ; [6]): 0.38 mg
Percent Inhibition of Hair Growth (hamster flank organ; [6]): 47%
Hamster Flank Organ Hair Mass, Treated Mean (hamster flank organ; [7]): 0.51 mg
Percent Inhibition of Hair Growth (hamster flank organ; [7]): 61%
Hamster Flank Organ Hair Mass, Treated Mean (hamster flank organ; [8]): 0.07 mg
Percent Inhibition of Hair Growth (hamster flank organ; [8]): 92%
Nature of the hair on the treated organ (hamster flank organ; treated vs untreated organ, Table 1 footnote): more vellous

O=C(O)C[C@H](NC(=O)CP(=O)(O)O)C(=O)O [PALA, N-phosphonacetyl-L-aspartic acid]
reduction of aspartate transcarbamylase activity [3]: 72%
Hamster Flank Organ Hair Mass, Treated Mean (hamster flank organ; [9]): 1.36 mg
Percent Inhibition of Hair Growth (hamster flank organ; [9]): 13%
Hamster Flank Organ Hair Mass, Treated Mean (hamster flank organ; [10]): 1.34 mg
Percent Inhibition of Hair Growth (hamster flank organ; [10]): 19%
Hamster Flank Organ Hair Mass, Treated Mean (hamster flank organ; [11]): 0.85 mg
Percent Inhibition of Hair Growth (hamster flank organ; [11]): 50%
Hamster Flank Organ Hair Mass, Treated Mean (hamster flank organ; [12]): 0.37 mg
Percent Inhibition of Hair Growth (hamster flank organ; [12]): 78%
Hamster Flank Organ Hair Mass, Treated Mean (hamster flank organ; [13]): 0.23 mg
Percent Inhibition of Hair Growth (hamster flank organ; [13]): 87%
inhibition of CDP (hair follicle content) [4]: 19%
inhibition of CTP (hair follicle content) [4]: 60%
inhibition of UDP (hair follicle content) [4]: 25%
inhibition of UTP (hair follicle content) [4]: 50%
